Measured values as given in patent US20100144802A1, “Small Molecule Inhibitors for Immune Modulation” (priority 2007, published 2010).

Experiments:
[1] = mouse, in vivo
Method: (§1) FIG. 1 depicts the novel small molecule inhibitor, WP1066, that inhibits Stat-3 activity and has significant central nervous system (CNS) and glioma tumor penetration in vitro and in vivo. FIG. 1A provides the chemical structure of WP1066. […] WP1066 was injected intraperitoneally (IP) at doses of 100 mg/kg every other day for two weeks in nude mice. Specifically, plasma, CNS tissue, and U87-MG flank tumors were harvested and, after extraction, were analyzed for WP1066 content using tandem liquid chromatography/mass spectrometry. […] Cells were stained with fluorescently-labeled anti-CD3 and anti-CD11b antibodies, and propidium iodide (PI) and analyzed by flow cytometry. Macrophages and T cells were gated on CD11b^+ and CD3^+ populations, respectively, and cell death (%) was quantified as CD11b^+PI^+ or CD3^+PI^+ populations in the respective plots. Plots represent the 5 μM maximum dose (clear histogram) compared to control untreated cells (shaded histogram) incubated under similar conditions.

[2] = Plasma concentration after oral administration; type: in vivo; conditions: mice
Source text: Patients with malignant human gliomas have a preponderance of immunosuppressive cytokines, a lack of effector/activated T cells, enhanced regulatory T cells (Tregs), and inadequate antigen-presentation functional activity, contributing to their profound immunosuppression. Known immune stimulators within these patients are insufficient to overcome these influences. Therefore, we investigated whether a pharmacological derivative of the natural compound, caffeic acid (WP1066)(FIG. 1A), a small molecule inhibitor of Stat-3 activity, can (in physiologically relevant doses) attenuate these suppressed immune responses.

Stat-3 = target: T1, Stat-3 (Homo sapiens, UniProt P40763); test: Phosphorylated Stat-3 by intracellular staining and flow cytometry in PBMCs; type: cell-based; conditions: doses achievable in vivo (1 nM-5 μM)
T1 construct: normal donor peripheral blood mononuclear cells (PBMCs) were assessed for phosphorylated Stat-3 activity; endogenous in cells; host or cells: normal donor peripheral blood mononuclear cells (PBMCs)
T1 sequence (P40763 whole entry): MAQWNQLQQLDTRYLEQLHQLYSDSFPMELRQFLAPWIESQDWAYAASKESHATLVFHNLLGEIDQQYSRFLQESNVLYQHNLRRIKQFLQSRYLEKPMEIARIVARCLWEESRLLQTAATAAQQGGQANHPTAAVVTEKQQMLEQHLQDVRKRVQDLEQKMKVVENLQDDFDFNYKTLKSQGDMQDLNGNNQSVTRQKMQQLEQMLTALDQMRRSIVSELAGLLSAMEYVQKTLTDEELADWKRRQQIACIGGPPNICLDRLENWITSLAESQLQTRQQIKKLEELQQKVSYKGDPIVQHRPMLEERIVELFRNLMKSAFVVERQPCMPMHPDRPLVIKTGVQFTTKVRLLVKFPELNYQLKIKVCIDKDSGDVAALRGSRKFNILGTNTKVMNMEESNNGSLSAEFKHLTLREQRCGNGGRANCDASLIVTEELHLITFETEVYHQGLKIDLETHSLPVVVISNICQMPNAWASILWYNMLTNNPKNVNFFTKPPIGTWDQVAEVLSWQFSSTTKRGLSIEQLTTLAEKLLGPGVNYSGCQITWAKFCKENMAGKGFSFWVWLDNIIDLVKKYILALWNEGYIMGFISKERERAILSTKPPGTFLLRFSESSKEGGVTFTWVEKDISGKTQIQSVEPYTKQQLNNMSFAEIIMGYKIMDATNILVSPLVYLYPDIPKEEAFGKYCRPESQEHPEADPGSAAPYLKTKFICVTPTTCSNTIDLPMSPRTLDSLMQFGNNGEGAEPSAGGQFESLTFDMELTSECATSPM

normal donor PBMCs = test: Cell death (propidium iodide) of macrophages and T cells in PBMCs; type: cell-based, human; conditions: 1 nM-5 μM, 2 and 4 hours
Method: as §1

CD80 and CD86 [3] = test: Costimulatory molecule expression (CD80, CD86) by flow cytometry; type: cell-based, human
Method: (§2) PBMCs from normal human donors (n=5) were incubated for 24 hrs at 37° C., 5% CO2, in either medium (RPMI 1640+10% fetal bovine serum) or medium supplemented with 5 μM WP1066. Cells were then stained with fluorescent antibodies to CD11b and either CD80 or CD86 and analyzed by flow cytometry. Glioma-infiltrating microglia were purified from freshly resected GBM patient tumor tissue (n=3) and incubated in either medium or medium supplemented with WP1066 (1 μM). After incubation, microglia (CD11b^+/CD45^+) were double stained with fluorescent antibodies to CD11b and either CD80 or CD86, and analyzed by flow cytometry. Numbers in the upper right quadrant of each graph denote the percentage of CD11b^+ gated cells that express either CD80 or CD86. […] Cells were then labeled with CD11b/CD14 macrophage markers and stained and analyzed for intracellular cytokine production. Percentages of macrophages that were CD11b^+/CD14^+ and also positive for the respective cytokine were calculated by flow cytometry analysis. A scatter plot representative of all samples analyzed for macrophage intracellular cytokine production was determined with LPS-treated cells (circles) and WP1066-treated cells (diamonds). The black bars denote the mean values of each subgroup, p values determining statistical significance between LPS-stimulated groups and WP1066-stimulated groups were determined using Student's t test (NS, not statistically significant). […] Carboxyfluoroscein succinimidyl ester (CFSE)-labeled CD8^+ T cells isolated from newly diagnosed GBM patients were incubated with untreated autologous APCs (CD11b^+/CD14^+) and anti-CD3 antibody, with anti-CD3 antibody+anti-CD28 antibody, and with LPS-treated (5 μg/mL) autologous APCs or WP1066-treated (1 μM) autologous APCs. In all cases, cells were incubated for 4 days at 37° C., 5% CO2, followed by surface staining for T cell markers (CD3, CD8) and analysis by flow cytometry. […] Purity of all cell populations was determined to be at least 97% by flow cytometry. […]

macrophages = test: Macrophage intracellular cytokine production by flow cytometry; type: cell-based, human; conditions: 4 hrs
Method: PBMCs from normal human donors (n=5) were incubated for 24 hrs at 37° C., 5% CO2, in either medium (RPMI 1640+10% fetal bovine serum) or medium supplemented with 5 μM WP1066. Cells were then stained with fluorescent antibodies to CD11b and either CD80 or CD86 and analyzed by flow cytometry. Glioma-infiltrating microglia were purified from freshly resected GBM patient tumor tissue (n=3) and incubated in either medium or medium supplemented with WP1066 (1 μM). After incubation, microglia (CD11b^+/CD45^+) were double stained with fluorescent antibodies to CD11b and either CD80 or CD86, and analyzed by flow cytometry. Numbers in the upper right quadrant of each graph denote the percentage of CD11b^+ gated cells that express either CD80 or CD86. […] Cells were then labeled with CD11b/CD14 macrophage markers and stained and analyzed for intracellular cytokine production. Percentages of macrophages that were CD11b^+/CD14^+ and also positive for the respective cytokine were calculated by flow cytometry analysis. A scatter plot representative of all samples analyzed for macrophage intracellular cytokine production was determined with LPS-treated cells (circles) and WP1066-treated cells (diamonds). The black bars denote the mean values of each subgroup, p values determining statistical significance between LPS-stimulated groups and WP1066-stimulated groups were determined using Student's t test (NS, not statistically significant). […] Carboxyfluoroscein succinimidyl ester (CFSE)-labeled CD8^+ T cells isolated from newly diagnosed GBM patients were incubated with untreated autologous APCs (CD11b^+/CD14^+) and anti-CD3 antibody, with anti-CD3 antibody+anti-CD28 antibody, and with LPS-treated (5 μg/mL) autologous APCs or WP1066-treated (1 μM) autologous APCs. In all cases, cells were incubated for 4 days at 37° C., 5% CO2, followed by surface staining for T cell markers (CD3, CD8) and analysis by flow cytometry. The number on each plot indicates the percentage of CD8^+ gated cells that have undergone cell division via CFSE dilution. […] For (A-C), modified Percoll density gradient (1.083 g/mL) centrifugation was used to isolate PBMCs of both GBM patients and normal donors. CD8+ T cells were isolated by magnetic bead separation and then labeled with CFSE. Autologous APCs were purified from the above density gradient buffy-coat layer by negative selection, using a monocyte bead isolation kit and magnetic separation column. Purity of all cell populations was determined to be at least 97% by flow cytometry. Autologous microglia/macrophages from GBM patients were purified from freshly resected human glioma/brain tissue using a modified Percoll gradient isolation technique. All APCs were treated with the respective stimulants (control medium alone, LPS, or WP1066) for 24 hours and then washed prior to incubation with T cells in the proliferation assay. […] T cells from the same patients were isolated with human CD3 microbeads and a magnetic separation column, with the exception of one patient who lacked sufficient PBMCs for both monocyte and T cell isolations. Monocytes or T cells seeded at a density of 1×10^6 cells per well in 6-well culture plates and were incubated at 37° C., 5% CO2, with either the medium or medium supplemented with 5 μM WP1066. After 2 hours, monocytes and T cells were stimulated for 5 minutes with 2 μg/mL LPS and 5 μg/mL anti-CD3 antibody, respectively, in the presence or absence of WP1066. […]

[4] = test system: T cells isolated from peripheral blood of GBM patients; test: T cell proliferation (CFSE dilution) with treated antigen-presenting cells; type: cell-based, human; conditions: GBM patient T cells with treated macrophages/APCs; WP1066 1 μM, LPS 5 μg/mL, 4 days
Method: PBMCs from normal human donors (n=5) were incubated for 24 hrs at 37° C., 5% CO2, in either medium (RPMI 1640+10% fetal bovine serum) or medium supplemented with 5 μM WP1066. Cells were then stained with fluorescent antibodies to CD11b and either CD80 or CD86 and analyzed by flow cytometry. Glioma-infiltrating microglia were purified from freshly resected GBM patient tumor tissue (n=3) and incubated in either medium or medium supplemented with WP1066 (1 μM). After incubation, microglia (CD11b^+/CD45^+) were double stained with fluorescent antibodies to CD11b and either CD80 or CD86, and analyzed by flow cytometry. […] Cells were then labeled with CD11b/CD14 macrophage markers and stained and analyzed for intracellular cytokine production. Percentages of macrophages that were CD11b^+/CD14^+ and also positive for the respective cytokine were calculated by flow cytometry analysis. A scatter plot representative of all samples analyzed for macrophage intracellular cytokine production was determined with LPS-treated cells (circles) and WP1066-treated cells (diamonds). The black bars denote the mean values of each subgroup, p values determining statistical significance between LPS-stimulated groups and WP1066-stimulated groups were determined using Student's t test (NS, not statistically significant). […] Purity of all cell populations was determined to be at least 97% by flow cytometry. […]

[5] = test system: monocytes isolated from GBM patients; test: Immunoblotting of signaling proteins in GBM patient monocytes; type: cell-based, human; conditions: 5 μM
Method: (§3) To determine how WP1066 induces these potent immune responses, T cells and monocytes isolated from GBM patients were treated with WP1066 and subsequently lysed and analyzed by immunoblotting for critical signaling proteins. […] The tyrosine phosphorylation of Syk initiates downstream signaling events during human monocyte activation, whereas the phosphorylation of Tyr319 in Zap-70 plays a critical role in mediating T cell activation via signaling through the T cell receptor. Raeder, E. M. et al. J Immunol 163, 6785-93 (1999); Williams, B. L. et al. EMBO 18, 1832-1844 (1999). Both Syk and ZAP-70 can be phosphorylated through autophosphorylation and transphosphorylation. […] The tyrosine phosphorylation of critical signaling proteins induced/enhanced by WP1066 are likely pivotal to the WP1066-induced restoration of immune function in GBM patients and explains the mechanisms of potent immune activation.
as §2, with “APCs.” for “APCs. In all cases, cells were incubated for 4 days at 37° C., 5% CO2, followed by surface staining for T cell markers (CD3, CD8) and analysis by flow cytometry.”

T cells = test: Immunoblotting of signaling proteins in GBM patient T cells; type: cell-based, human; conditions: 5 μM
Method: as §3
PBMCs from normal human donors (n=5) were incubated for 24 hrs at 37° C., 5% CO2, in either medium (RPMI 1640+10% fetal bovine serum) or medium supplemented with 5 μM WP1066. Cells were then stained with fluorescent antibodies to CD11b and either CD80 or CD86 and analyzed by flow cytometry. […] After incubation, microglia (CD11b^+/CD45^+) were double stained with fluorescent antibodies to CD11b and either CD80 or CD86, and analyzed by flow cytometry. […] Cells were then labeled with CD11b/CD14 macrophage markers and stained and analyzed for intracellular cytokine production. Percentages of macrophages that were CD11b^+/CD14^+ and also positive for the respective cytokine were calculated by flow cytometry analysis. A scatter plot representative of all samples analyzed for macrophage intracellular cytokine production was determined with LPS-treated cells (circles) and WP1066-treated cells (diamonds). The black bars denote the mean values of each subgroup, p values determining statistical significance between LPS-stimulated groups and WP1066-stimulated groups were determined using Student's t test (NS, not statistically significant). […]

intracerebral B16 cells = test: Survival of C57BL/6J mice with established intracerebral tumors; type: in vivo
intracerebral B16 = test: Survival of nude mice with established intracerebral B16; type: in vivo
Foxp3 = test: Intracellular Foxp3 expression in iTreg differentiation and natural Tregs by flow cytometry; type: cell-based, C57BL/6J mice; conditions: 0, 0.1 and 1 μM, more than 96 hours
Method: CD4+CD25−CD62L^hi naïve T cells from C57BL/6J mice were stimulated by plate-bound anti-CD3 (2 μg/ml) and soluble anti-CD28 (2 μg/ml) antibodiesin the presence of TGF-β1 (1 ng/ml) plus hIL-2 (200 U/ml) with addition of different concentrations of WP1066 (0, 0.1, and 1 μM) for inducible Treg (iTreg) differentiation; CD4+CD25+ T cells (natural Tregs [nTreg]) were stimulated by plate-bound anti-CD3 (2 μg/ml) antibodies in the presence of hIL-2 (200 U/ml) with addition of different concentrations of WP1066 (0, 0.1, and 1 μM). More than 96 hours after stimulation, the cells were analyzed for intracellular Foxp3 expression using flow cytometry.

[6] = test system: tumor cell types, including malignant gliomas; conditions: variety of tumor cell types; cited from earlier work
CD80 and CD86 [7] = conditions: cited from earlier work
[8] = normal donors and GBM patients, 5 μM

In the case of `C[C@H](NC(=O)/C(C#N)=C/c1cccc(Br)n1)c1ccccc1` [WP1066], the “uptake of the compound by tumors versus other tissue” value [1] is reported as “higher drug content than any other tissue”, the “central nervous system (CNS) concentrations” value ([1]; nude) is reported as 0.185 µM and the concentrations in tumor ([1]; nude) is reported as 1.07 µM. For the same molecule, the “concentrations per gram of tumor” value ([1]; nude) was 362 μg/gram, the “concentrations within orthotopic gliomas” value ([1]; nude) was 1.07 µM and the plasma concentrations [2] was greater than 2 µM. The “inhibition of Stat-3 within immune cells” value (Stat-3) was “inhibit Stat-3”, the cell viability (normal donor PBMCs) was “not compromised” and the “CD80 and CD86 on tumor-infiltrating microglia/macrophages from GBM patients” value (CD80 and CD86 [3]; 1 μM) was “capable of upregulating CD80 and CD86”. For the same molecule, the “CD80 and CD86 on normal donor PBMCs” value (CD80 and CD86 [3]; 5 μM, 24 hrs) was “capable of upregulating CD80 and CD86”, the “up regulation of costimulation in human monocytes” value (CD80 and CD86 [3]; incubated with IL-10 and TGF-β (data not shown)) was “can be achieved” and the “IL-2 induction from macrophages” value (macrophages; [8]) was “induce”. The “IL-4 induction from macrophages” value (macrophages; [8]) was “induce”, the “IL-12 induction from macrophages” value (macrophages; [8]) was “induce” and the “IL-15 induction from macrophages” value (macrophages; [8]) was “induce”. For the same molecule, the T cell proliferation [4] was “potently induced T cell proliferation”, the “tyrosine phosphorylation in monocytes and T cells” value ([5]; proteins of 70 to 75 KDa and 50 to 60 KDa, also T cells) was “induced or enhanced” and the “levels of p57/p59-Hck” value ([5]; monocytes) was “increased”. For the same molecule, the “phospho-p72Syk (Tyr352)” value ([5]; monocytes) was “induced”, the “total protein level of Syk” value ([5]; monocytes) was “didn't affect” and the “levels of p56-Lck” value (T cells) was “increased”. The “phospho-ZAP-70 (Tyr319)” value (T cells) was “induced”, the “total protein level of ZAP-70” value (T cells) was “markedly decreased” and the “immunological memory on rechallenge” value (intracerebral B16 cells; animals surviving longer than 78 days, tumor cells into contralateral hemisphere) was “minimal immunological memory was induced”. For the same molecule, the “anti-tumor efficacy (survival)” value (intracerebral B16 cells; established intracerebral B16 cells, oral gavage, compared with B16EGFRvIII model) was “Identical anti-tumor efficacy”, the “efficacy after in vivo depletions of CD4+ and CD8+ T cells” value (intracerebral B16 cells; established intracerebral syngeneic murine models) was “abrogates the efficacy” and the “clinical effectiveness (survival) in immune incompetent background” value (intracerebral B16) was “abrogates the clinical effectiveness”. For the same molecule, the “Foxp3 expression in natural Tregs” value (Foxp3) was “downregulates Foxp3 expression”, the “Foxp3 induction in peripheral T cells” value (Foxp3; iTreg differentiation) was “inhibits Foxp3 induction” and the proapoptotic activity [6] was “proapoptotic activity”.

For “lipopolysaccharide [LPS, reference compound]”, the “IL-1β levels compared with WP1066” value (macrophages; LPS 5 μg/mL) is listed as “significantly higher levels”, the T cell proliferation [4] is listed as “unable to induce any T cell proliferation” and the “up regulating costimulatory molecules on microglia isolated directly from GBM patients” value (CD80 and CD86 [7]) is listed as “totally insufficient”.
